Assay [1] concerns the target T1, human OX1 receptors (Homo sapiens, UniProt O43613).
T1 construct: expressed in transfected cells; host or cells: CHO cells
T1 sequence (O43613 1-425): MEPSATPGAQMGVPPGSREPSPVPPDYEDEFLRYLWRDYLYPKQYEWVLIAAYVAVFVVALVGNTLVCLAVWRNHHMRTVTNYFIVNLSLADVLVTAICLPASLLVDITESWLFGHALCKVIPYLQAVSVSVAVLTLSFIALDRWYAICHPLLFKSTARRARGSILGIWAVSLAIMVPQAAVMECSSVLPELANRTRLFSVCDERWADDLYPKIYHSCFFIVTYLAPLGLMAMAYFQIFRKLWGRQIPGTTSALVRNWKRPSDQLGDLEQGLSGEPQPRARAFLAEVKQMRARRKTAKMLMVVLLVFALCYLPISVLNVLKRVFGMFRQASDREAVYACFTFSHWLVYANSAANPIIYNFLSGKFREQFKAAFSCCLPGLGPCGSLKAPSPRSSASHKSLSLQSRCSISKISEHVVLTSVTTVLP
Put plainly: Antagonistic activity against human OX1 receptor, [Ca2+]i fluorimetry (Fluo-4NW) in transfected CHO cells activated with orexin-A. It counts as cell-based. The note with it: CHO cells transfected with human recombinant OX1; orexin-A 3 nM; pKb = co-logarithm of apparent dissociation constant, modified Cheng Prusoff. The procedure, abridged:
(§1)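 Fluo-4NW-loaded cells were preincubated with compound (1 nM–1 μM, 0.3% DMSO, duplicates) for 5 min at 22 °C, then stimulated with 3 nM orexin-A (OX1, CHO) or 10 nM orexin-B (OX2, HEK-293), and [Ca2+]i was read fluorimetrically. IC50 came from Hill-equation fitting, averaged over ≥2 experiments, and was converted to pKb by modified Cheng-Prusoff.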

For assay [2], the target named is T2, human OX2 receptors (Homo sapiens, UniProt O43614).
T2 construct: expressed in transfected cells; host or cells: HEK-293 cells
T2 sequence (O43614 1-444): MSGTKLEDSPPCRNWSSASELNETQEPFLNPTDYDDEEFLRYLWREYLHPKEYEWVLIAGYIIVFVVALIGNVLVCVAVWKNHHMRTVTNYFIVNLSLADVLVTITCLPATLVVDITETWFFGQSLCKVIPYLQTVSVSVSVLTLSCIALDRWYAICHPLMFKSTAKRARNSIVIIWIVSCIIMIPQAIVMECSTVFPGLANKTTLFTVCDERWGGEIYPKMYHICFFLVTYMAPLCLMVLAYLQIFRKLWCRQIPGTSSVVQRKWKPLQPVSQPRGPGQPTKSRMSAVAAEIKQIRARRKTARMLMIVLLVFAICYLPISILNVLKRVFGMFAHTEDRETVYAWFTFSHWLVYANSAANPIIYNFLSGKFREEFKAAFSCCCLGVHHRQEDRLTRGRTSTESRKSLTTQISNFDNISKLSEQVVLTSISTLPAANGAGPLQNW
Put plainly: Antagonistic activity against human OX2 receptor, [Ca2+]i fluorimetry (Fluo-4NW) in transfected HEK-293 cells activated with orexin-B. It counts as cell-based. Particulars: HEK-293 cells transfected with human recombinant OX2; orexin-B 10 nM; pKb = co-logarithm of apparent dissociation constant, modified Cheng Prusoff. The procedure, abridged:
as §1

From patent publication US9062033B2, “Chemical compounds” (Rottapharm Biotech S.r.l., priority 2011, dated 2015) come the findings set out here.

SMILES strings stand for the structures.

For `Cc1ccc(-c2ncccn2)c(C(=O)N2CC3(CC3)C[C@H]2CNc2cc(C(F)(F)F)cc(C)n2)c1` [Compound 1m, (S)-(5-methyl-2-(pyrimidin-2-yl)phenyl)(6-(((6-methyl-4-(trifluoromethyl)pyridin-2-yl)amino)methyl)-5-azaspiro[2.4]heptan-5-yl)methanone], the antagonist dissociation constant (Kb) was 15.8 nM in assay [1] and 12.6 nM in assay [2].
Taken in the same sequence, the figures for `Cc1ccc(-c2ncccn2)c(C(=O)N2CC3(CC3)C[C@H]2CNc2nc3cc(Cl)ccc3o2)n1` [Compound E10, (S)-(6-(((5-chlorobenzo[d]oxazol-2-yl)amino)methyl)-5-azaspiro[2.4]heptan-5-yl)(6-methyl-3-(pyrimidin-2-yl)pyridin-2-yl)methanone] were 7.94 nM and 79.4 nM.
